Results reported in BindingDB's records for patent US20250011272 (Shanghaiinstitute of Materia Medica, 2025).
pIC50: −log10 of the molar value.

Biological target: T1, ATP-citrate synthase (Homo sapiens, UniProt P53396)
T1 sequence (P53396 whole entry): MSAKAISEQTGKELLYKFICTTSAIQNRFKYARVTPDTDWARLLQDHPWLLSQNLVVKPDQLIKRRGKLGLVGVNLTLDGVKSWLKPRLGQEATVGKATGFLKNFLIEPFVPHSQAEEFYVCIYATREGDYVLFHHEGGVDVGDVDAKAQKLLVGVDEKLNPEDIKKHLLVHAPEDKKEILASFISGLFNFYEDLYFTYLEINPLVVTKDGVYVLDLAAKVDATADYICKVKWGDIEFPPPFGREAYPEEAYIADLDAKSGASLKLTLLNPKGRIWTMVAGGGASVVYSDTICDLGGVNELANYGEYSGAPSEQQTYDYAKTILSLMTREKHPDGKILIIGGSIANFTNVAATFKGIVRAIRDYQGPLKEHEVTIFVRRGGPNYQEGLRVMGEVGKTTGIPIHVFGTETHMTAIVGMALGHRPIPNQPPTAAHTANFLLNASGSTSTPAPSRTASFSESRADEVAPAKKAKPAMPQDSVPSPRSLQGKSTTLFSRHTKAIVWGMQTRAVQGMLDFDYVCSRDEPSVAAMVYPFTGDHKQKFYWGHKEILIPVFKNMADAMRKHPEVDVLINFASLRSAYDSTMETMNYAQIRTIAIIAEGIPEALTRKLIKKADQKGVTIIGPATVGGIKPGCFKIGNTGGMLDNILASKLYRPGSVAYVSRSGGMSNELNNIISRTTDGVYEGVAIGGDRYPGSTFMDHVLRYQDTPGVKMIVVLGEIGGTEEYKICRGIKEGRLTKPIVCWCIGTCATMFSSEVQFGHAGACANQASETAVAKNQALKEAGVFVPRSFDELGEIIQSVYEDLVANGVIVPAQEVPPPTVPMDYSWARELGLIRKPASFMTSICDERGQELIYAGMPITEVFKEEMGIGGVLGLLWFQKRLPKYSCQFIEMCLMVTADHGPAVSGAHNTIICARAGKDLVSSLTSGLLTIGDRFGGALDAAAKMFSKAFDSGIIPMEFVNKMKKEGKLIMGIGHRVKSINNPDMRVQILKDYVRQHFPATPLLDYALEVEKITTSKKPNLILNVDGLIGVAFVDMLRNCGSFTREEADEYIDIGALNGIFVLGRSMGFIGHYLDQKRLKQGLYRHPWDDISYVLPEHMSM
Test: ACLY Enzyme Activity Assay
Method: Experimental method: ADP Glo luminescence method was used for determination. It reflects the activity of ACLY enzyme by quantitatively detecting the amount of ADP, and the enzymatic reaction catalyzed by ACLY is proportional to the amount of ADP detected by the luminescent signal. Firstly, the compound is diluted with 10% DMSO, and then […] of compound dilution is added to a 5 μl reaction system, so that the final reaction system has a DMSO content of 2%. The enzymatic reaction catalyzed by ACLY was carried out at 37° C. for 30 minutes. 5 μl reaction mixture contained the following components: 40 mM Tris, pH 8.0, 10 mM MgCl2, 5 mM DTT, ATP, CoA, sodium citrate, and ACLY. After the enzymatic reaction was complete, 2.5 μl of ADP Glo reagent was added to each reaction system and incubated at room temperature for 1 hour. Afterwards, 5 μl of kinase detection reagent was added and incubated at room temperature for 30 minutes. The luminous signal was detected using Envision (PerkinElmer, USA).

pIC50	Structure (SMILES)
4.78	O=C(O)C1(CCCCCC/C=C/CCCCCCC2(C(=O)O)CCCCC2)CCCCC1 [US20250011272, Example M18]
6.12	O=C(c1ccc(/C(=C/CCCCCCC2(C(=O)O)C=CCC2)CCCCCCC2(C(=O)O)C=CCC2)cc1)N1CCN(c2ccccn2)CC1 (stereo unspecified) [US20250011272, Example M38]
5.89	O=C(O)c1ccc(-c2ccc(N3CCN(C(=O)c4ccc(/C(=C/CCCCCCC5(C(=O)O)C=CCC5)CCCCCCC5(C(=O)O)C=CCC5)cc4)CC3)nc2)cc1 (stereo unspecified) [US20250011272, Example M39]
5.51	O=C(O)C1(CCCCCC/C=C/CCCCCCC2(C(=O)O)CC=CC2)CC=CC1 [US20250011272, Example M17]
5.40	CC(CCCCCC/C=C/CCCCCCC(C)(C(=O)O)c1ccccc1)(C(=O)O)c1ccccc1 (stereo unspecified) [US20250011272, Example M16]
5.77	O=C(c1ccc(/C(=C/CCCCCCC2(C(=O)O)C=CCC2)CCCCCCC2(C(=O)O)C=CCC2)cc1)N1CCN(c2ccccc2F)CC1 (stereo unspecified) [US20250011272, Example M40]
